Experimental data reported in ChEMBL document CHEMBL1201862, “PubChem BioAssay data set” (2004).
The source made the active and inactive calls.

How the values were obtained:
[1] = test system: HEK293; experiment: HEK293T cell viability loss, resazurin readout – resazurin fluorescence, cytotoxicity control for NF-kB activator project, SAR follow-up (AID 493251); assay type: functional, cell-based; conditions: Homo sapiens
[2] = test system: HEK293; experiment: SAR Analysis of small molecule inhibitors of B-cell specific antigen receptor-induced NF-kB activation in a HEK-293T cell line using a luminescence assay - Set 2. [Related pubchem assays (depositor defined):AID435022, AID435025, AID489021]; assay type: functional, cell-based; conditions: Homo sapiens
[3] = test system: Jurkat; experiment: SAR Analysis of small molecule inhibitors of […] specific antigen receptor-induced NF-kB activation in a Jurkat cell line using a luminescence assay - Set 3. [Related pubchem assays (depositor defined):AID435022, AID435025, AID465]; assay type: functional, cell-based; conditions: Homo sapiens
[4] = test system: HEK293; experiment: cells; conditions: Homo sapiens
[5] = viability of HCT116 lacking mutant beta-catenin – cell-based, human colon tumor, dose response (AID 1045); assay type: functional;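 also: HCT116 colon tumor cells with beta catenin knocked out; cells exposed to compound for 60 hours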
[6] = viability of PTEN-deleted HCT116 cells – cell-based, HCT116 PTEN knockout, dose response (AID 1047); assay type: functional;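 also: HCT116 colon tumor cells with PTEN knocked out; cells exposed to compound for 60 hours before readout; potency for loss of cell viability measured by luminescence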
[7] = test system: HEK293; experiment: cells; conditions: Homo sapiens; remark: listed apart in the source
[8] = HEK-293T viability loss, compound-treated – cell-based, uHTS hits, cytotoxicity control for B/T-cell NF-kB inhibitor project, dose response (AID 489019); assay type: functional;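 also: IC50 reflects cytotoxicity as loss of cell viability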
[9] = biological target: E3 ubiquitin-protein ligase Mdm2 (Homo sapiens, UniProt Q00987); experiment: MDM2-luc reporter signal enhancers, multi-concentration potency testing, MDM2 ubiquitin-protein ligase inhibitor program, whole-cell format, luminescence detection, 384-well microplate (AID 1394); assay type: functional;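 also: MDM2 E3 inhibitors raise luminescence so EC50 is for signal enhancement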
Sequence of E3 ubiquitin-protein ligase Mdm2 (Q00987 whole entry): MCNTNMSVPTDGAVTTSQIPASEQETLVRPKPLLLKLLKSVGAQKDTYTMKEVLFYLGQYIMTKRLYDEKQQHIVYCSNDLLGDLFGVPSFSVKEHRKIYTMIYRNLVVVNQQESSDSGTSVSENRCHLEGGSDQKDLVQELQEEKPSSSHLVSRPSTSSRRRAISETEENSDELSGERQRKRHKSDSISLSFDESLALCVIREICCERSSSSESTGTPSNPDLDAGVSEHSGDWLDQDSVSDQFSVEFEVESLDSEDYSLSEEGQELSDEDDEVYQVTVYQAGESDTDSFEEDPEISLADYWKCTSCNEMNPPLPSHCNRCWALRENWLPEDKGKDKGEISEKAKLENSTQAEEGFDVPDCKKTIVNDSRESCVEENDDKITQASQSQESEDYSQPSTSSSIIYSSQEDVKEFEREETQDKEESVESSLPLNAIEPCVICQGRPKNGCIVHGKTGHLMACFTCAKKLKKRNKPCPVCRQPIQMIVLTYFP

[10] = test system: INS1; experiment: INS-1E survival protection against cytokine death – cell-based, luminescence, retest, dose response (AID 449756); assay type: functional; conditions: Rattus norvegicus;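 also: cell death triggered by IL-1 beta plus TNF-alpha plus IFN-gamma mixture; protective hits raise ATP signal compared with cytokine alone wells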
[11] = test system: Jurkat; experiment: blockers of NF-kB activation in T cells – Jurkat, luciferase reporter, luminescence, B- and T-cell, dose response (AID 489004); assay type: functional, cell-based; conditions: Homo sapiens;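 also: NF-kB luciferase reporter Jurkat cells stimulated with PMA plus ionomycin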
[12] = biological target: T1, Type-1 angiotensin II receptor (Homo sapiens, UniProt P30556); experiment: antagonism of angiotensin II type 1 receptor – cell-based, uHTS hits, selectivity assay for APJ receptor antagonist project, dose response (AID 463214); assay type: functional;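 also: antagonist potency against angiotensin II stimulated AT1 response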
T1 sequence (P30556 whole entry): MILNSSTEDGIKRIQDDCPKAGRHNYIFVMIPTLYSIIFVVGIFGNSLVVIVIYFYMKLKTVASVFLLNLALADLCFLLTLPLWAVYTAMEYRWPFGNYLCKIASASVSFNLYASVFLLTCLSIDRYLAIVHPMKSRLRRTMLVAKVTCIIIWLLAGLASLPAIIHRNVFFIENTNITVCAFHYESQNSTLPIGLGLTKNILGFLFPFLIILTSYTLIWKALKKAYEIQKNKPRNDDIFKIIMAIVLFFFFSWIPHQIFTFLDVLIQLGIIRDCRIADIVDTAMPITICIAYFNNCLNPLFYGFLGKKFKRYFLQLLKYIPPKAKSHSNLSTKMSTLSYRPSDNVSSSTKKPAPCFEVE

[13] = biological target: Beta-galactosidase (Escherichia coli, UniProt Q8VNN2); experiment: PubChem AID 485352; assay type: functional
Sequence of Beta-galactosidase (Q8VNN2 whole entry): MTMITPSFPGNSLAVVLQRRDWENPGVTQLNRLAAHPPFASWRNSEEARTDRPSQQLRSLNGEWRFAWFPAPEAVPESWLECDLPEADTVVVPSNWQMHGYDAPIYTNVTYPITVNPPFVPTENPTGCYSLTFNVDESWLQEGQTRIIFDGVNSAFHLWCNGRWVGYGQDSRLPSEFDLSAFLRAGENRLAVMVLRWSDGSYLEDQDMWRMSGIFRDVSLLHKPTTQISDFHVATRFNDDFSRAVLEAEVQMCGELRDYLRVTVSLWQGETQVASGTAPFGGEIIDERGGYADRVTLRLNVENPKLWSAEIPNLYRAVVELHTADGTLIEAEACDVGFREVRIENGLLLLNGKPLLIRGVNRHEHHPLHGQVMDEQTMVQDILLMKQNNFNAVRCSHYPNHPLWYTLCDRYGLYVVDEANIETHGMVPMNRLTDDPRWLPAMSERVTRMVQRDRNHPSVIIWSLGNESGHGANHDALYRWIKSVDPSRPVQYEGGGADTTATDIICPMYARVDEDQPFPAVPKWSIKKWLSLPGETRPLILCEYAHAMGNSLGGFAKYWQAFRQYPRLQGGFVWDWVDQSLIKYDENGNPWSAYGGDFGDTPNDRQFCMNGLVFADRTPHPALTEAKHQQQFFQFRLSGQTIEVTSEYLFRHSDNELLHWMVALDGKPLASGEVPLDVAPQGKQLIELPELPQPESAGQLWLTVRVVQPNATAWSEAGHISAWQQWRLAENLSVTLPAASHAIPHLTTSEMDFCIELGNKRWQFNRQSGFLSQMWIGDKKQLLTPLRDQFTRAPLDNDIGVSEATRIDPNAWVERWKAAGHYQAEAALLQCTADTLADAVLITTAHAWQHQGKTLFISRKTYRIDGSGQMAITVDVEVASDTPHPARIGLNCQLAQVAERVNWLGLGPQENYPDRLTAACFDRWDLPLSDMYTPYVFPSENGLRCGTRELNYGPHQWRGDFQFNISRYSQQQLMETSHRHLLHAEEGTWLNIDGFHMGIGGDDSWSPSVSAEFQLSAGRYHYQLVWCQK

[14] = biological target: Paired box protein Pax-8 (Homo sapiens, UniProt Q06710); experiment: PAX8 transcriptional activity inhibition in RMG-I – RMG-I cells, luciferase, cherry-pick, dose response (AID 687027); assay type: functional, cell-based;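 also: luciferase reporter driven by Pax8 target thyroperoxidase promoter measured by SteadyGlo luminescence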
Sequence of Paired box protein Pax-8 (Q06710 whole entry): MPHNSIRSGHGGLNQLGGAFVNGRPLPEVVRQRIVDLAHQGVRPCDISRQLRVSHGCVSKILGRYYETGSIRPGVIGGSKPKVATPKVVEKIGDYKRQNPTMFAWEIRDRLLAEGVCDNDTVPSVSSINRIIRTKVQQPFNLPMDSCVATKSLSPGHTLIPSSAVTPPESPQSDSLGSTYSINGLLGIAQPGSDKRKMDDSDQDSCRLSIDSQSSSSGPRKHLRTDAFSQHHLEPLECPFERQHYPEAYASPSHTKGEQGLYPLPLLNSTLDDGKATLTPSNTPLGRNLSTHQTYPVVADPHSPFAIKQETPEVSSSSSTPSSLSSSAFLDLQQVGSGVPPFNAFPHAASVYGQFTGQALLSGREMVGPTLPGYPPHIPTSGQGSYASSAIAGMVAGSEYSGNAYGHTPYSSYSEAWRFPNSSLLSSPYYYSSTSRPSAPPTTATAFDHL

[15] = biological target: G-protein coupled receptor 55 (Homo sapiens, UniProt Q9Y2T6); experiment: inhibition of LPI-stimulated GPR55 beta-arrestin translocation – imaging, U2OS, beta-arrestin-GFP, LPI agonist, primary screen (AID 2013); assay type: functional;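 also: antagonist potency measured as reduced agonist-driven arrestin aggregation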
Sequence of G-protein coupled receptor 55 (Q9Y2T6 whole entry): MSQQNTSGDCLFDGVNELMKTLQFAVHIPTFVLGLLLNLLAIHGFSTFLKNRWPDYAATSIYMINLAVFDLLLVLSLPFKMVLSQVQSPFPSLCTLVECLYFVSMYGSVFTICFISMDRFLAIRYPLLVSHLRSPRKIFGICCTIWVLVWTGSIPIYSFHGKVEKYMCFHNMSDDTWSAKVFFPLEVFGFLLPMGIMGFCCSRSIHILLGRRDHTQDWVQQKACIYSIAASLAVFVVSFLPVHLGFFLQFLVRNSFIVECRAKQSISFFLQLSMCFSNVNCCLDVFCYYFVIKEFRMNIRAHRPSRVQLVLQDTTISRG

[16] = test system: Streptococcus sp. 'group A'; experiment: Streptococcus pyogenes SK(-)GAS viability under kanamycin – luminescence, BacTiterGlo, confirmation, counter-screen for streptokinase expression inhibitor project, dose response (AID 1900); assay type: functional, organism-based
[17] = microbe, parasite or virus in culture; assay type: functional; conditions: Mycobacterium tuberculosis
[18] = biological target: ATP-dependent molecular chaperone HSP82 (Candida albicans (strain WO-1) (Yeast), UniProt C4YTQ8); experiment: steroid-induced GRE reporter decrease in yeast – S. cerevisiae, luminescence, Hsp90 inhibitor project, dose response (AID 2400); assay type: functional, cell-based;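 also: beta-galactosidase luminescence from glucocorticoid response element reporter as proxy for Hsp90 function; inhibitor potency where signal loss means Hsp90 inhibition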
Sequence of ATP-dependent molecular chaperone HSP82 (C4YTQ8 whole entry): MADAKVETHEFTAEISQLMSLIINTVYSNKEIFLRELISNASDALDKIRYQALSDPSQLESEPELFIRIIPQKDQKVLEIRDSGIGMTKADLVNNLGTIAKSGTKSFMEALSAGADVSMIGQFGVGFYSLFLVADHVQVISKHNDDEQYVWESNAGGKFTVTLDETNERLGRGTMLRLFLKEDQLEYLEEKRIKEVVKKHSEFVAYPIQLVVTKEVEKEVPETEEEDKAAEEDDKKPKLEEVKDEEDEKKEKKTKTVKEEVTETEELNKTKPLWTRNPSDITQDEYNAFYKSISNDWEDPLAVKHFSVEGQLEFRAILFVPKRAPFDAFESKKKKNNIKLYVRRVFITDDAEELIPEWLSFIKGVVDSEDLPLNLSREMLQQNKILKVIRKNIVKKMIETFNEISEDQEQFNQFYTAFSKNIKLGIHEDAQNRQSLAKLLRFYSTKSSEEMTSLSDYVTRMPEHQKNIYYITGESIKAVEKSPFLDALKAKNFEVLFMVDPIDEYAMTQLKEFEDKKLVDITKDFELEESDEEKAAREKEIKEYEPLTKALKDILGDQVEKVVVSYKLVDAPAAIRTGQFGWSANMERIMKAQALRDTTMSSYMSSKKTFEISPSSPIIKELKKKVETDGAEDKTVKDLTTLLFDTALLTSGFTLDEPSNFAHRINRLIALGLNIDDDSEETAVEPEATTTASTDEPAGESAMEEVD

[19] = NIH-3T3 fibroblast cytotoxicity, dose response, cytotoxicity control, cell-based, fluorescence, Alamar Blue, secondary assay (AID 2327); assay type: functional;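 also: NIH-3T3 mouse fibroblasts cultured with fluconazole at 8 µg/mL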
[20] = biological target: T2, Serine/threonine-protein phosphatase (Candida dubliniensis (strain CD36 / CBS 7987 / NCPF 3949 / NRRLY-17841) (Yeast), UniProt B9W6M3); experiment: blockers of CaCl2-induced CDRE-lacZ signaling – S. cerevisiae, luminescence, secondary, dose response (AID 2388); assay type: functional, cell-based;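 also: yeast reporter cells carrying a calcineurin-responsive lacZ construct stimulated with calcium chloride; luminescent beta-galactosidase reporter signal in whole cells rather than isolated phosphatase activity; potency for inhibition where a drop in reporter signal means calcineurin blockade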
T2 sequence (B9W6M3 whole entry): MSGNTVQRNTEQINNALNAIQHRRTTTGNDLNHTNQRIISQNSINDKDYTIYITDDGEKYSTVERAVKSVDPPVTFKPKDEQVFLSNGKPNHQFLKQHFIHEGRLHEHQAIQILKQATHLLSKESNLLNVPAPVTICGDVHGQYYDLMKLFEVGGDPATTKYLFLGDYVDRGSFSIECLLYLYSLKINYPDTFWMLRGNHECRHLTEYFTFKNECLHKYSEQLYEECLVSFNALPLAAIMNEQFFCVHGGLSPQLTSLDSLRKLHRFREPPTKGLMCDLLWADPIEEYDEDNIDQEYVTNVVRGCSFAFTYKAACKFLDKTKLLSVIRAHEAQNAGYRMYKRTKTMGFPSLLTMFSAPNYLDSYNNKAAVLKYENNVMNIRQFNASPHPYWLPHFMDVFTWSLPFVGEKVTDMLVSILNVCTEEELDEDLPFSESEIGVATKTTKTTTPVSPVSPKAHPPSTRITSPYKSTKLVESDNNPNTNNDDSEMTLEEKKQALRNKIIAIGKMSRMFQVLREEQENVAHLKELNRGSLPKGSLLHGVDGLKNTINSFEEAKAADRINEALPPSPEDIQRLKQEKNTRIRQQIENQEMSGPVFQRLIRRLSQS

[21] = fluconazole-exposed Candida albicans growth modulators – fluorescence, retest, confirmation (AID 2467); assay type: functional, cell-based
[22] = NIH3T3 cell viability loss – ATP luminescence, mouse fibroblasts, counter-screen, dose response (AID 2010); assay type: functional, cell-based;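 also: cells exposed to compound for about 90 hours before reading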
[23] = Trypanosoma cruzi growth suppression in host cells – NIH3T3 host cells, beta-gal luminescence, confirmation (AID 2044); assay type: functional, cell-based;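 also: intracellular parasites grown in NIH/3T3 mouse fibroblasts as host cells; luminescent beta-galactosidase reporter signal from transgenic T. cruzi replicating inside host cells; inhibitors lower the luminescence signal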
[24] = biological target: T2, Serine/threonine-protein phosphatase; experiment: Fluorescence Cell-Based Secondary Assay to Identify Inhibitors of Calcineurin. [Related pubchem assays (depositor defined):AID1979, AID2007]; assay type: functional
[25] = biological target: Heat shock protein HSP 90-alpha (Homo sapiens, UniProt P07900); assay type: functional, organism-based
[26] = test system: Vero; experiment: cells; assay type: functional; conditions: Chlorocebus sabaeus
[27] = test system: Streptococcus; experiment: GAS UMAA2166 growth inhibition – luminescence, BacTiterGlo, counter-screen for streptokinase expression inhibitor project, dose response (AID 1915); assay type: functional, organism-based;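 also: potency for reduction of bacterial viability or growth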
[28] = biological target: Keap1/Nrf2 (Homo sapiens, UniProt Q14145); experiment: disruptors of Keap1 binding to Nrf2 peptide – biochemical, fluorescence polarization, cherry-picked samples, dose response (AID 588683)
Sequence of Keap1/Nrf2 (Q16236 whole entry): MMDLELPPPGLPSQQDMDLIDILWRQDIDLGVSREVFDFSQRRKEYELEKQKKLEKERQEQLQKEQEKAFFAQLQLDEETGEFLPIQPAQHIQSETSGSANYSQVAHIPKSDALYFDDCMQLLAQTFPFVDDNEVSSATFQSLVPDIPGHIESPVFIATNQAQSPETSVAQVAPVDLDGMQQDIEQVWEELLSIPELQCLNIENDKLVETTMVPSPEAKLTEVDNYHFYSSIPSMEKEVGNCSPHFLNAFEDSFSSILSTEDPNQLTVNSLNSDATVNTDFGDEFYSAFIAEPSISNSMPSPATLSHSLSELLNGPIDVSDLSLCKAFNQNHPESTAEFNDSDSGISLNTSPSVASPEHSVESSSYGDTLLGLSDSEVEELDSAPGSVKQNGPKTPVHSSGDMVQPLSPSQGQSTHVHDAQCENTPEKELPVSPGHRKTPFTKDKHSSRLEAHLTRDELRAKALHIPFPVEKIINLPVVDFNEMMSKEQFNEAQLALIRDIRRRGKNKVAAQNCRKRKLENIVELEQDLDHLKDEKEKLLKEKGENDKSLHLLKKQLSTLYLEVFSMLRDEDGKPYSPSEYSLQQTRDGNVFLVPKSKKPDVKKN
Sequence of Keap1/Nrf2 (Q14145 whole entry): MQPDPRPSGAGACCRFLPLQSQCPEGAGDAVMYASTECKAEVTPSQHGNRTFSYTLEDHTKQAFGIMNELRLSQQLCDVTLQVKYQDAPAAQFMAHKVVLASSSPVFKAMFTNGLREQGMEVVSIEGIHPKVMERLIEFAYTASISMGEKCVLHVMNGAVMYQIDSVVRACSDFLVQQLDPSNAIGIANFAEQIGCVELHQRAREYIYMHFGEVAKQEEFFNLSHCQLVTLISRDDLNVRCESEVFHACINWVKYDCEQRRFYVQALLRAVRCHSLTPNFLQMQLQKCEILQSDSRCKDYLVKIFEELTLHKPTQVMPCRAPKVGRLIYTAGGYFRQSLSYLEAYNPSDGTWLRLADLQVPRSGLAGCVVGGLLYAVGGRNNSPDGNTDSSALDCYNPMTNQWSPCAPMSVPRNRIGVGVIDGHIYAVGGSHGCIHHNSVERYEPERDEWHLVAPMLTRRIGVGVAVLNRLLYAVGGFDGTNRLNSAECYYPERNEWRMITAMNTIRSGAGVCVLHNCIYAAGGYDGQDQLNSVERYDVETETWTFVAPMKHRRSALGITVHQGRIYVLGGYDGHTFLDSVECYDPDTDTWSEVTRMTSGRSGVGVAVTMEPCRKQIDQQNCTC

[29] = biological target: T3, Endoribonuclease toxin MazF (Escherichia coli K-12, UniProt P0AE70); experiment: activation of MazEF endoribonuclease cleavage – biochemical, fluorescence, single-stranded RNA substrate, uHTS hits, dose response (AID 588481); assay type: functional
T3 sequence (P0AE70 whole entry): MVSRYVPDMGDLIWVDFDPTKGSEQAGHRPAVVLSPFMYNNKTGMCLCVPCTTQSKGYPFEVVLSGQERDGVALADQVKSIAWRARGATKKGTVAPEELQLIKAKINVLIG

[30] = biological target: T3, Endoribonuclease toxin MazF; experiment: substrate-only fluorescence increase artefacts – biochemical, single-stranded RNase substrate, counter-screen for MazEF activator project, dose response (AID 588502); assay type: functional
[31] = biological target: UDP-galactopyranose mutase (Mycobacterium tuberculosis, UniProt P9WIQ1); experiment: Inhibitors of Mycobacterium tuberculosis UDP-galactopyranose mutase (UGM) enzyme Measured in Biochemical System Using Plate Reader - 2105-02_Inhibitor_Dose_CherryPick_Activity. [Related pubchem assays (depositor defined):AID504439]
Sequence of UDP-galactopyranose mutase (P9WIQ1 whole entry): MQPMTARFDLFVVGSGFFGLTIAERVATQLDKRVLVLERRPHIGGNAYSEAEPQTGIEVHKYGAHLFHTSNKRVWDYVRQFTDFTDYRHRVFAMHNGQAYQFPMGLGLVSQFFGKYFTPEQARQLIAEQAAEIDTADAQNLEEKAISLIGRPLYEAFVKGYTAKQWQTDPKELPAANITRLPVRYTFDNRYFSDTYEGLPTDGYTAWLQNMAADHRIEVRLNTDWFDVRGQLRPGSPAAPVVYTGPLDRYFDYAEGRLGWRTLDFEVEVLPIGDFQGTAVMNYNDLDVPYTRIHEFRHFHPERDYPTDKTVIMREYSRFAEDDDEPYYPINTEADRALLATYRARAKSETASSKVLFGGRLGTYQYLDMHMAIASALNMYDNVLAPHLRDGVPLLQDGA

[32] = biological target: T4, ORF 73 (Human herpesvirus 8, UniProt O40947); experiment: KSHV LANA DNA-binding disruption – biochemical, fluorescence polarization, cherry-picked samples, dose response (AID 504725); design: species or system Human gammaherpesvirus 8;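 also: fluorescence polarization of a labeled DNA duplex reporting LANA DNA binding; potency is for inhibitors that block LANA binding to the DNA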
T4 sequence (O40947 whole entry): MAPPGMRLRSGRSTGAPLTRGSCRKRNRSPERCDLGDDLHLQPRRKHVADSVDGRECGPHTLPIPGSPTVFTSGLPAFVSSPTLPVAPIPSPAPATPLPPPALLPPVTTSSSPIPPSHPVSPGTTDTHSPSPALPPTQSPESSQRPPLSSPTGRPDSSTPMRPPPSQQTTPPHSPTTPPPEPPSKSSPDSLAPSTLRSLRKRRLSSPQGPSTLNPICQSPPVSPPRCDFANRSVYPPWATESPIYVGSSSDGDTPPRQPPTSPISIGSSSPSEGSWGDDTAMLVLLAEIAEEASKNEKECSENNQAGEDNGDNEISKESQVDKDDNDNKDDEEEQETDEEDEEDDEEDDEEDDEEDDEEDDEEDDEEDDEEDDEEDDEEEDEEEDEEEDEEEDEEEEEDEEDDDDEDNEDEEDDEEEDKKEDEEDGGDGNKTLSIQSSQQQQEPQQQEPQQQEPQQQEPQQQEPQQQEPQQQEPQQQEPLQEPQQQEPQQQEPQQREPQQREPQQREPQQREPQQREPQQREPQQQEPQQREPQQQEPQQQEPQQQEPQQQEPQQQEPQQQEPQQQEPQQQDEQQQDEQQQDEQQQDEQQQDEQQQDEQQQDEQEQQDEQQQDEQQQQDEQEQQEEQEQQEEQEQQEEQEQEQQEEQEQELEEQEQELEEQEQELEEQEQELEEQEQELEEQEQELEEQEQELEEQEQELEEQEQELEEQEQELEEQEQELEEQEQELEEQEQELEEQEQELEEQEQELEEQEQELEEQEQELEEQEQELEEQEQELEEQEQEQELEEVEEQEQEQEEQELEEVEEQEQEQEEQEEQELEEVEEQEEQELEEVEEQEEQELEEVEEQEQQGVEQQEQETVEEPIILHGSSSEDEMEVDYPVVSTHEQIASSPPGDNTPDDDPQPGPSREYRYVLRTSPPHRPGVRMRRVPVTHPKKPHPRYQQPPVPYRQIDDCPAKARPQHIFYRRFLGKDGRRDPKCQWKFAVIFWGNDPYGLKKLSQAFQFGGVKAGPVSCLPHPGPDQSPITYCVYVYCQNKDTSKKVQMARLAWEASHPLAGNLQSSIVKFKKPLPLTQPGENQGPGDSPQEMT

[33] = test system: HeLa; experiment: viability loss in HeLa cells – cell-based, 24 h, cherry-picked samples, cytotoxicity control, dose response (AID 504726); assay type: functional; conditions: Homo sapiens;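 also: potency for cytotoxicity as loss of luminescence signal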

CC(C)(C)c1ccc(-c2noc(CCC(=O)NC3CCCCC3)n2)cc1
IC50 [1]: > 80 µM (inactive)
IC50 [2]: 2.68 µM (active)
IC50 [3]: 19.9 µM (active)

CC1=CC(C)(C)Nc2ccc(OC(=O)CCN3C(=O)c4ccccc4C3=O)cc21
EC50 [4]: > 59.6 µM (inactive)
EC50 [5]: 6.3 µM (active)
EC50 [6]: 10.8 µM (active)
EC50 [7]: > 59.6 µM (inactive)

C=C1C(=O)O[C@@H]2C[C@@H](C)[C@@H]3C=CC(=O)[C@@]3(C)[C@@H](OC(C)=O)[C@H]12 [ANGUSTIBALIN]
IC50 [8]: > 80 µM (inactive)
EC50 [9]: 7.68 µM (not active)
AC50 [10]: 2.13 µM (active)
IC50 [11]: 0.99 µM (active)
IC50 [12]: 22 µM (not active)
EC50 [13]: > 40 µM (inactive)
AC50 [14]: 0.742 µM (active)
IC50 [15]: 4.49 µM (active)

O=C(Oc1c(Cl)cc(Cl)c2cccnc12)c1cccs1
EC50 [16]: 1.47 µM (active)
CC50 [17]: 17.3 µM (active)
EC50 [18]: 16 µM (active)
EC50 [19]: 27.3 µM (active)
AC50 [10]: 8.83 µM (active)
EC50 [20]: > 180 µM (inactive)
EC50 [21]: 0.122 µM (active)
EC50 [22]: 9.43 µM (active)
EC50 [23]: 2.41 µM (active)
EC50 [24]: > 285 µM (inactive)
AC50 [25]: 3.28 µM (active)
CC50 [26]: 16.5 µM (active)
EC50 [27]: 1.27 µM (active)

Cn1nc(-c2ccccc2)c2nc3ccccc3nc21
AC50 [28]: 14 µM (active)
EC50 [29]: > 99 µM (inactive)
EC50 [30]: > 99 µM (inactive)
AC50 [31]: 11.3 µM (active)
AC50 [32]: 42.5 µM (active)
AC50 [33]: 44.5 µM (active)
